The subject of assay [1] is Replicating M. tuberculosis. Nature of the assay: Minimum inhibitory concentration in replicating M. tuberculosis culture. It counts as cell-based, M. tuberculosis H37Rv.
In assay [2] the test system is Aged-cultured (non-replicating) M. tuberculosis. The experiment in a line: microbe, parasite or virus in culture. The format is cell-based, M. tuberculosis H37Ra. The following applies: Mycobacterium tuberculosis, read-out: M.I.C. Aged-cultured M. tuberculosis.
The next assay deals with MtMetAP1a (Mycobacterium tuberculosis, UniProt P9WK20). The experiment in a line: Coupled methionine-proline aminopeptidase enzymatic assay. The format is biochemical. The following applies: […] CoCl2, 600 µM Met-Pro-pNA, 20 min pre-incubation.
A further assay addresses MtMetAP1c (Mycobacterium tuberculosis, UniProt P9WK18). Nature of the assay: biochemical. The following applies: […] CoCl2, 600 µM Met-Pro-pNA, 20 min pre-incubation.

Molecules are shown by their SMILES. Values after ≈ are worked out from the molar mass of the structure shown.

Chain of MtMetAP1c (P9WK18 whole entry): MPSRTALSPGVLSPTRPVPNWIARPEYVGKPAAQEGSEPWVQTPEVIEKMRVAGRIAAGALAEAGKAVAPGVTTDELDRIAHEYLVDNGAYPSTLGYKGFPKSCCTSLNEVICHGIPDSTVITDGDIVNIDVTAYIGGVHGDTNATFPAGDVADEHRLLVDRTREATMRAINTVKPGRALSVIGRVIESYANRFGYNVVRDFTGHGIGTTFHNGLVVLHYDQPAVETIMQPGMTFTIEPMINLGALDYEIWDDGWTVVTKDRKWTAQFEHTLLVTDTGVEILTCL
Chain of MtMetAP1a (P9WK20 whole entry): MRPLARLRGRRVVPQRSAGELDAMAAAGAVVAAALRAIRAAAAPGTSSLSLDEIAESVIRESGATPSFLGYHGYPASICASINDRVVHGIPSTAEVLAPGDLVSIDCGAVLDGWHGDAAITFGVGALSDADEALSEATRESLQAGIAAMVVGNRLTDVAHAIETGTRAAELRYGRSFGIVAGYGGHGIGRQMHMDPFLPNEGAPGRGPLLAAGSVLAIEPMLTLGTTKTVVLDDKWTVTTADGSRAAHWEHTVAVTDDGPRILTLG

What is called IC50 is the midpoint of a concentration-inhibition curve. The low end stands for greater potency, the high end for weaker potency. Take `O=C1C(Cl)=C(Cl)C(=O)c2ccccc21` [Compound 4, 2,3-dichloro-1,4-naphthoquinone]: in assay [1], the “M.I.C. Replicating M. tuberculosis” value stood at 10 µg/mL. The MIC in assay [2] lay in the range of 5.7 to 11.4 µg/mL (≈ 25.1 to 50.2 µM). The values for the IC50 against MtMetAP1a and against MtMetAP1c were 3.3 ± 0.3 µM and 6.6 ± 1.2 µM, respectively.

The values are drawn from PMC3165048 (Chemistry & biology, 2010).
